Test results published in a melting point compilation (Tetko et al.; mined from patent text by program, amines drawn as free bases though some values may be those of a salt).

First: CCOC(=O)c1c(C)nc2c(cnn2CC)c1O
Second: CCOC(=O)c1c(C)cc2nc(CO)n(-c3ccccc3C)c(=O)c2c1C
The melting point of the first is lower: 118 to 120 °C for the first, 130 to 132 °C for the second.

First: Nc1ccc(Cl)c(C(=O)NCC23CC4CC(CC(C4)C2)C3)c1
Second: CC1(C(=O)O)CCC(=O)c2cc(C3CCCCC3)c(Cl)cc21 (stereo unspecified)
The melting point of the first is lower: 214 °C for the first, 227 to 228 °C for the second.

Compared with `Cc1c(C(=O)O)oc2ccc(Br)c(OC(C)C)c12`, `CC(=O)Oc1c(C)c(C)nc2ccccc12` is lower in melting point: 182 to 184 °C for the first, 93 to 94 °C for the second.

First: O=C(NCc1nc(O)cc(O)n1)c1cccs1
Second: CC(=O)c1ccc(S(=O)(=O)Nc2nccs2)cc1
The melting point of the first is higher: 270 to 275 °C for the first, 194 to 195 °C for the second.

First: O=C(NC(=O)c1c(F)cccc1F)Nc1cc(F)c(C(F)(F)F)c(F)c1
Second: COC(=O)c1ccc(OC)cc1-c1ccc(C(F)(F)F)cc1
The melting point of the first is higher: 231 °C for the first, 93 to 94 °C for the second.

First: CC(C)(C)NNC(=O)C(C)(C)C
Second: CC(C)(C)NC(=O)N1C(=O)[C@H](O)[C@@H]1c1ccccc1
The melting point of the first is lower: 97 to 105 °C for the first, 148 to 151 °C for the second.

Compared with `CC(NC(=O)C(NC(=O)OCC1c2ccccc2-c2ccccc21)C(Cc1ccccc1)C(=O)O)C(=O)O` (stereo unspecified), `C1=CC(CCC2c3ccccc3-c3ccccc32)c2ccccc21` (stereo unspecified) is lower in melting point: 114 to 116 °C for the first, 79 to 80 °C for the second.

Compared with `CCCCCC(=O)Nc1cccc2c1C1(COc3cc4c(cc31)OCCO4)C(=O)N2C` (stereo unspecified), `CN1C(=O)CC[C@]2(C)c3ccc(-c4ccc5c(c4)OCCO5)cc3CC[C@@H]12` is higher in melting point: 151 to 153 °C for the first, 183 to 189 °C for the second.

Compared with `CN(C)C(=O)c1ccccc1-c1ccc(C(=O)N2Cc3ccc(C(=O)NCc4cccnc4)n3Cc3ccccc32)cc1`, `Cc1ccccc1C(=O)CN1C(=O)C(NC(=O)Nc2cccc(C(=O)NS(C)(=O)=O)c2)CN(c2ccccc2)c2ccccc21` (stereo unspecified) is higher in melting point: 206 to 207 °C for the first, 210 to 220 °C for the second.

First: CCOC(C)OC1CCC2(C)C3=C(CCC2C1(C)C)C1=CCC(C(C)CSc2ccccc2)C1(C)CC3 (stereo unspecified)
Second: N#CCCCc1ccccc1CC1C(=O)CCCC1=O
The melting point of the first is lower: 101 to 107 °C for the first, 143 °C for the second.

Compared with `NC(=O)c1cc(NCc2cccc(Cl)c2)c([N+](=O)[O-])cc1[N+](=O)[O-]`, `COc1ccc(NC(C)=O)c(Sc2ccc([N+](=O)[O-])cc2[N+](=O)[O-])c1` is lower in melting point: 178 to 180 °C for the first, 125 to 126 °C for the second.

First: COC(=O)[C@H](O)[C@@H](N)c1ccccc1
Second: CC(NC(=O)OC(C)(C)C)C(=O)NC1CCN(Cc2ccccc2)C1 (stereo unspecified)
The melting point of the first is higher: 101 °C for the first, 83 to 85 °C for the second.

Compared with `CC(C)(C)c1ccc2c(c1)-c1c(c(C(=O)C(C#N)C(=O)Nc3ccccc3)nn1-c1ccccc1)CO2` (stereo unspecified), `CCOC(=O)c1cc(NCc2ccccc2)c(Nc2ccc3ccccc3c2)c(S(N)(=O)=O)c1` is lower in melting point: 270 to 273 °C for the first, 199 to 201 °C for the second.

First: COC12CC(C3(c4cncc(Br)c4)N=NCS3)CN(C)C1Cc1cn(C)c3cccc2c13 (stereo unspecified)
Second: CN1CCN(c2cccc3ccc(Nc4ccc([N+](=O)[O-])cn4)cc23)CC1
The melting point of the first is higher: 131 to 137 °C for the first, 121 to 125 °C for the second.

First: CC(=O)N1CC(C)(C)c2c1cc(C)c(O)c2C
Second: CC1(C)CCc2cc(O)c(C=O)cc21
The melting point of the first is higher: 173 to 174 °C for the first, 40 to 40.5 °C for the second.

Compared with `COc1ccc(-n2ccn([C@H](C)[C@@]3(c4ccc(F)cc4F)CO3)c2=O)cc1`, `COc1ccc(Cn2cnc3c(-c4ccco4)nc(OC(C)C)nc32)cc1` is lower in melting point: 150 to 151 °C for the first, 145 to 146 °C for the second.

First: CCCOc1ccccc1-c1ncc(NC(C)=O)c(=O)[nH]1
Second: CCOC(=O)c1onc(OCC)c1CN1C(=O)c2ccccc2C1=O
The melting point of the first is higher: 195 to 197 °C for the first, 93 to 94 °C for the second.

First: CCCC(=O)N1N=C(c2ccc([N+](=O)[O-])cc2)c2cc(Cl)c(Cl)cc2CC1C (stereo unspecified)
Second: CC1CN(c2ccc([N+](=O)[O-])cc2Cl)C(=O)O1 (stereo unspecified)
The melting point of the first is higher: 75 to 77 °C for the first, 73 to 75 °C for the second.

Compared with `Nc1n[nH]cc1-c1cccc(N2CCC(N3CCCC3)CC2)c1`, `O=C(c1ccc(-c2ccc3nnn(Cc4ccc5ncccc5c4)c3n2)cc1)N1CCC(N2CCCC2)CC1` is lower in melting point: 214 to 216 °C for the first, 125 to 127 °C for the second.

First: O=C(Nc1ccccc1)Nc1cccnc1Cl
Second: O=C(O)c1[nH]c(=O)c2ccccc2c1-c1ccccc1
The melting point of the first is lower: 178 to 180 °C for the first, greater than 300 °C for the second.

First: CCCCNC(=S)Nc1cc(Cl)ccc1N1CCOCC1
Second: COc1cccc2c(=O)cc(N3CCOCC3)oc12
The melting point of the first is lower: 150 to 152 °C for the first, 165 °C for the second.

Compared with `CCCCCc1cc2c(nc(O)n2CCCNC(=O)NC2CCCCC2)c(N)n1`, `CCCn1c(COCC)nc2c(N)nc3cc(OC4CCN(C(=O)OC(C)(C)C)CC4)ccc3c21` is lower in melting point: 202 to 204 °C for the first, 194 to 195 °C for the second.

First: Cc1cccc(Cl)c1CO
Second: CCSC(=NC(C)=O)Nc1c(Cl)cccc1Cl
The melting point of the first is lower: 83 to 86 °C for the first, 97 to 100 °C for the second.

Compared with `Fc1ccc(C(c2ccncc2)C2CCCCC2)cc1` (stereo unspecified), `Cc1ccc(S(=O)(=O)OCC2CCN(c3nc4ccccc4s3)CC2)cc1` is higher in melting point: 78 to 81 °C for the first, 184 °C for the second.

First: O=S(=O)(c1ccccc1)c1cc(Cl)c2oc3c(c2c1)CC(O)CC3 (stereo unspecified)
Second: O=C1c2ccccc2C(=O)N1CCCCN1CCC(c2c[nH]c3ccccc23)CC1
The melting point of the first is higher: 236 to 240 °C for the first, 106 to 108 °C for the second.

Compared with `CCCCCCCCCCCCCCCCCCNC(=O)OCC(CNS(=O)(=O)CCCI)OC(=O)NC` (stereo unspecified), `CCCCCCCCOc1ccc2c(c1)C(=O)c1cc3ccccc3cc1C2=O` is higher in melting point: 97 to 99 °C for the first, 127 to 129 °C for the second.

First: CCc1cccc(CC)c1-n1cnc(N)nc1=O
Second: O=C1CC(N2C=Nc3cccc(Br)c3C2)C(=O)N1 (stereo unspecified)
The melting point of the first is lower: 136 to 138 °C for the first, 214 to 217 °C for the second.

Compared with `COc1cc2c(c(Cl)c1Cl)C(=O)C(C)(c1cccs1)C2` (stereo unspecified), `COc1ccc(CCN(C)C)c2[nH]c(=O)[nH]c12` is higher in melting point: 145 to 146 °C for the first, 197 to 199 °C for the second.

First: CCOC(=O)C1=C(N)C(NCC(O)COCc2cccc(CN3CCCCC3)c2)=NS1(=O)=O (stereo unspecified)
Second: CCOCCOC(=O)C1=C(C)NC(C=O)=C(C(=O)OCC)C1c1cccc([N+](=O)[O-])c1 (stereo unspecified)
The melting point of the first is lower: 72 to 74 °C for the first, 100 to 101 °C for the second.

Compared with `CCN(CC)c1ncnc2c1ncn2C1CC(F)C(CO)O1` (stereo unspecified), `NS(=O)(=O)c1ncnc2c1ccn2C1CC(O)C(CO)O1` (stereo unspecified) is higher in melting point: 114 to 115 °C for the first, 175 to 177 °C for the second.

First: O=C(NC(=O)C(c1ccccc1)c1ccccc1)OCCCCc1ccccc1
Second: Nc1ccc(Oc2ccccc2OCc2ccccc2)cc1
The melting point of the first is higher: 118 °C for the first, 111 to 112 °C for the second.

First: Cc1cc(Br)cnc1CCCCNC1=NS(=O)(=O)c2cc(Br)ccc21
Second: Cc1ccc(-c2nn(C(C)(C)C(=O)N(C)C)cc2C)c(Cl)c1
The melting point of the first is higher: 224 to 232 °C for the first, 126 to 128 °C for the second.

First: CN(C)CC1CNc2ccc(Cl)cc2C1 (stereo unspecified)
Second: O=C1CCCNc2ccc(Cl)cc21
The melting point of the first is lower: 94 to 96 °C for the first, 103 to 104 °C for the second.

First: Cc1ccc2c(c1)C(=O)CCC21CCC(=O)N(C)C1=O (stereo unspecified)
Second: COC(=O)OC1=C(c2cc(C)ccc2C)C(=O)NC12CCN(OC)CC2
The melting point of the first is lower: 146 to 148 °C for the first, 186 to 188 °C for the second.

First: NS(=O)(=O)c1cc(S(N)(=O)=O)c(C(Cl)=C(Cl)Cl)cc1NCc1ccco1
Second: CC(C)(C(=O)O)n1c(=O)[nH]c2ccc(Cl)cc2c1=O
The melting point of the first is lower: 155 °C for the first, 256 to 259 °C for the second.

Compared with `CCCOc1ccc(S(=O)(=O)N2CCN(CC)CC2)cc1C(=O)Nc1c(C(N)=O)nn(Cc2ccccn2)c1CC`, `O=C(O[C@@H]1CC[C@@H](c2cccc(F)c2F)Cc2ccc(Cl)nc21)N1CCC(n2c(=O)[nH]c3ncccc32)CC1` is higher in melting point: 191 to 192 °C for the first, 248 °C for the second.

Compared with `CC1OC(=O)C2C1C1CCC2(OC(=O)C(C)(C)C)O1` (stereo unspecified), `COc1ccc(C=CC(=O)C2CC2)cc1OC` is lower in melting point: 114 to 115 °C for the first, 89 to 91 °C for the second.

First: COc1ccc(C(=O)Nc2cc(-c3c(-c4ccc(F)c(C)c4)nc4ccc(N(C)C)nn34)ccn2)cc1
Second: COc1cc(OC)c2c(=O)[nH]c(-c3cc(C)c(OCCn4ccnc4)c(C)c3)nc2c1
The melting point of the first is higher: 224 to 225 °C for the first, 218 to 219 °C for the second.

First: CN(C)C(=O)C=Cc1c(C#N)cnn1-c1ncc(C(F)(F)F)cc1Cl
Second: O=[N+]([O-])c1ccc2[nH]c(C(F)(F)F)c([N+](=O)[O-])c2c1
The melting point of the first is lower: 116 to 120 °C for the first, 225 to 228 °C for the second.

Compared with `CS(=O)(=O)c1ccc(-c2cnn(-c3ccc(F)cc3)c(=O)c2C#Cc2ccccc2)cc1`, `Cc1cc(-c2ccc(S(N)(=O)=O)cc2)n(-c2ccc(SSc3ccc(-n4cc(C)cc4-c4ccc(S(N)(=O)=O)cc4)cc3)cc2)c1` is higher in melting point: 203 to 204 °C for the first, 251 to 255 °C for the second.

Compared with `CC(=O)NCCC1CCc2ccn3nc(C)cc3c21` (stereo unspecified), `Cc1cc(=O)n2c3c(cc(C(O)(C(F)(F)F)C(F)(F)F)cc13)CCCC2` is higher in melting point: 106 to 107 °C for the first, 169 to 171 °C for the second.

First: C=CCNc1nc(NC(C)(C)C)nc2ccc([N+](=O)[O-])cc12
Second: C=CC(=O)OC(C)OC(=O)c1c2ccccc2cc2ccccc12 (stereo unspecified)
The melting point of the first is higher: 139 to 140 °C for the first, 66 to 68 °C for the second.

First: NCC1Cc2cccc(-c3cccc4ccccc34)c2O1 (stereo unspecified)
Second: Cc1ccc2c(Sc3ccc(Cl)cc3)c(C(=O)O)[nH]c2c1
The melting point of the first is lower: 120 to 124 °C for the first, 228 to 229 °C for the second.

First: CCCCc1ccc(C(=O)C(CC(=O)N[C@@H](Cc2cc(F)cc(F)c2)[C@H](O)CNCc2cccc(CC)c2)Cc2ccccc2)cc1 (stereo partly specified)
Second: O=C1CCCN1Cc1ccc(CCn2cnc3cc(-c4ccc(Cl)cc4)sc3c2=O)cc1
The melting point of the first is lower: 42 to 45 °C for the first, 218 to 221 °C for the second.

First: COC(=O)CCN(C(=O)CC(O)C(=O)O)N1CCCCC1 (stereo unspecified)
Second: CNC(=O)C(Cc1ccc(OC)cc1)NC(=O)C(CC(C)C)C(CC(=O)N1CCN(C)CC1)SC(C)=O (stereo unspecified)
The melting point of the first is lower: 54 to 57 °C for the first, 133 to 138 °C for the second.

First: CC(C)Oc1nc(C#N)c(C#N)nc1Cl
Second: Cc1csc(NC(=O)C(C(=O)OC(C)C)=C2SCCS2)n1
The melting point of the first is lower: 48.5 to 50 °C for the first, 161 to 162 °C for the second.

Compared with `CNS(=O)(=O)CC(N)=O`, `CCOCC(=O)Nc1ncc(Br)s1` is lower in melting point: 104 to 108 °C for the first, 100 to 102 °C for the second.

Compared with `C[Si](C)(C)c1cccc2c1Sc1c(cccc1[Si](C)(C)C)S2`, `Cc1cc(-c2coc3c(C(C)(C)C)cc(C)cc23)c(O)c(C(C)(C)C)c1` is higher in melting point: 90 to 91 °C for the first, 132 to 134 °C for the second.

First: ClCCOc1ccc(Cl)c2[nH]cc(Cl)c12
Second: O=c1[nH]c(=O)c2ccncc2[nH]1
The melting point of the first is lower: 106 to 108 °C for the first, 365 °C for the second.

First: CN1CCN(c2ccc3c(=O)c(C(=O)O)cn4c3c2CCC4)CC1
Second: N#CC(CNC(=O)Nc1cncnc1)C(=O)O (stereo unspecified)
The melting point of the first is higher: 278 to 280 °C for the first, 183 °C for the second.

Molecule `CC1CCOP(C)(=O)C1` (stereo unspecified) has a melting point of 78 to 83 °C.
